Experimental data as given in patent US7629458B2, “Preparation of levofloxacin and hemihydrate thereof” (Teva Pharmaceutical Industries Ltd., priority 2001, dated 2009).
Each block holds one molecule with its values, some of them ahead of it.

How the values were obtained:
[1] = Storage of crystal forms in a closed or open bottle at RT, conversion to hemihydrate by absorption of atmospheric water; assay type: physicochemical; details: sample kept in an open bottle
Text: Another embodiment of the invention is a method for preparing a levofloxacin hemihydrate comprising storing one or more forms selected from the group consisting of Forms A, B, C, F, G, and H for an amount of time sufficient for the one or more forms to convert to a levofloxacin hemihydrate by the absorption of atomospheric water. For example, Forms A, B, C, F, G and H were converted to hemihydrate after 7-29 days of storing in a closed bottle at RT. The conversion to hemihydrate was faster (about 24 h) when keeping the sample in an open bottle.

[2] = Exposure of wet material to the air at RT covered with paper, polymorph of the sample; assay type: physicochemical
Description: The wet material was exposed to the air at RT covered with paper (for protection).
A first portion of the wet material was stirred in 5 v of acetonitrile at 75° C. for 2 h, then filtrated under vacuum. The polymorphism of the wet sample was Hemihydrate. A second portion of the wet material was exposed to the air at RT covered with paper (for protection).
After a few hours the polymorph of the wet samples was Hemihydrate.

[3] = ordinary relative humidity conditions; cited from earlier work

time of conversion to hemihydrate [1]: about 24 h
SMILES: C[C@H]1COc2c(N3CCN(C)CC3)c(F)cc3c(=O)c(C(=O)O)cn1c23 [Form A, levofloxacin]

polymorph of the wet sample after exposure to the air ([2]; after 3, 6, 9 hours (Example 12)): Form G
polymorph of the wet sample after exposure to the air ([2]; after 24 hours (Example 12)): hemihydrate polymorph
polymorph of the wet sample after exposure to the air ([2]; after a few hours (Example 13)): Hemihydrate
SMILES: C[C@H]1COc2c(N3CCN(C)CC3)c(F)cc3c(=O)c(C(=O)O)cn1c23 [Form H, levofloxacin]

SMILES: C[C@H]1COc2c(N3CCN(C)CC3)c(F)cc3c(=O)c(C(=O)O)cn1c23 [Form γ, levofloxacin]
form obtained after rapid adsorption of water vapor [3]: hemihydrate

SMILES: C[C@H]1COc2c(N3CCN(C)CC3)c(F)cc3c(=O)c(C(=O)O)cn1c23 [form α, levofloxacin]
form obtained after rapid adsorption of water vapor [3]: monohydrate
